According to patent US10570179B2, “Substituted urea depsipeptide analogs as activators of the CLPP endopeptidase” (priority 2016, dated 2020):
In brackets after ≈: the same amount, converted by molar mass. Numbered stars: 1 amine (or outer) side, 2 acyl side, 3 side chain; on linkers, the order of the positions; unused ones are H or OH. Bridge positions count the residues as written; N and C are the ends. Square brackets hold non-standard residues; d marks the D form. Peptide text beside a SMILES is read from it. * marks the point of attachment. ξ: configuration not given here. Piperazine(2S-CO,4-Me) = CN1CCN[C@H](C(=O)O)C1; Phe(3,5-F2) = N[C@@H](Cc1cc(F)cc(F)c1)C(=O)O; Phe(3-Me) = Cc1cccc(C[C@H](N)C(=O)O)c1; NH(4-Cl-2-F-phenyl) = Fc1cc(Cl)ccc1N*; Pro(4R-Me) = C[C@H]1CN[C@H](C(=O)O)C1; Hyp = O=C(O)[C@@H]1C[C@@H](O)CN1; ξNMeThr = CNC(C(=O)O)[C@@H](C)O; aThr = C[C@H](O)[C@H](N)C(=O)O; Pip = O=C(O)[C@@H]1CCCCN1; CO = O=C([*:1])[*:2]

How the values were obtained:
[1] = Plasma protein binding, rapid equilibrium dialysis; type: in vitro ADME, human; conditions: human, 4 h, 10 μM, pH 7.4
Method in brief: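 Compound spiked at 10 μM (0.1% DMSO) into human plasma, dialysed against DPBS pH 7.4 across 8 K MWCO RED membrane for 4 h at 37 °C with shaking. Both chambers quantified by LC-MS against warfarin internal standard; % free = buffer/plasma concentration ×100, % bound = 100 − % free.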

E. faecails = assay: Minimal inhibitory concentration, microbroth dilution; type: cell-based; conditions: Enterococcus faecalis; MIC; read-out: Minimal Inhibitory Concentrations (μM) E. faecails
Method in brief: (§1)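 MICs were determined by CLSI broth microdilution, using two-fold compound dilutions from a final 200 μM and about 10^5 cfu/mL inoculum. Plates were incubated aerobically at 37 °C overnight. The MIC was read visually as the lowest concentration preventing growth.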

MRSA NRS70 = assay: as above; type: cell-based; conditions: Staphylococcus aureus; MIC; read-out: Minimal Inhibitory Concentrations (μM) MRSA NRS70
Method in brief: as §1

S. pyogenes = assay: as above; type: cell-based; conditions: Streptococcus pyogenes; MIC; read-out: Minimal Inhibitory Concentrations (μM) S. pyogenes
Method in brief: as §1

S. pneumoniae = assay: as above; type: cell-based; conditions: Streptococcus pneumoniae; MIC; read-out: Minimal Inhibitory Concentrations (μM) S. pneumoniae
Method in brief: as §1

S. aureus USA 300 = assay: as above; type: cell-based; conditions: Staphylococcus aureus, USA300; MIC; read-out: Minimal Inhibitory Concentrations (μM) S. aureus USA 300
Method in brief: as §1

B. subtilis = assay: as above; type: cell-based; conditions: Bacillus subtilis; MIC; read-out: Minimal Inhibitory Concentrations (μM) B. subtilis
Method in brief: as §1

[2] = Microsomal metabolic stability; type: in vitro ADME, mouse; conditions: CD-1, mouse, pH 7.4
Method in brief: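 CD-1 mouse liver microsomes (0.6381 mg/mL protein microsomal solution, 0.1 M potassium phosphate pH 7.4 with EDTA) were incubated with compound and an NADPH-regenerating system at 37 °C, in triplicate. Acetonitrile/warfarin quench at 0, 15, 30, 60, 120 and 240 min, then LCMS. Half-life came from a first-order least-squares fit.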

Row | Compound | Human [1] | MIC (E. faecails) | MIC (MRSA NRS70) | MIC (S. pyogenes) | MIC (S. pneumoniae) | MIC (S. aureus USA 300) | MIC (B. subtilis) | Mouse [2]
1 | Cc1cccc(C[C@H](NC(=O)Nc2ccc(Cl)cc2F)C(=O)N[C@H]2COC(=O)[C@@H]3C[C@@H](C)CN3C(=O)[C@H](C)NC(=O)[C@@H]3CCCCN3C(=O)[C@@H]3C[C@H](N)CN3C2=O)c1 [Compound 12, (S)—N-((2R,6S,8AS,14AS,16S,20S,23AS)-16-AMINO-2,6-DIMETHYL-5,8,14,19,23-PENTAOXOOCTADECAHYDRO-1H,5H,14H,19H-PYRIDO[2,1-I]DIPYRROLO[2,1-C:2′,1′-L][1]OXA[4,7,10,13]TETRAAZACYCLOHEXADECIN-20-YL)-2-(3-(4-CHLORO-2-FLUOROPHENYL)UREIDO)-3-(M-TOLYL)PROPANAMIDE] | 99.9 ± 0.2% | 1.25 µM (≈ 1.03 µg/mL) | 1.25 µM (≈ 1.03 µg/mL) | 0.313 µM (≈ 0.258 µg/mL) | 0.156 µM (≈ 0.129 µg/mL) | 0.625 µM (≈ 0.516 µg/mL) | 1.25 µM (≈ 1.03 µg/mL) | 2.34 ± 0.44 h
2 | Cc1cccc(C[C@H](NC(=O)Nc2ccc(Cl)cc2F)C(=O)N[C@H]2COC(=O)[C@@H]3C[C@@H](C)CN3C(=O)[C@H](C)NC(=O)[C@@H]3CCCCN3C(=O)[C@@H]3CCCN3C2=O)c1 [Compound 8, (S)-2-(3-(4-CHLORO-2-FLUOROPHENYL)UREIDO)-N-((2R,6S,8AS,14AS,20S,23AS)-2,6-DIMETHYL-5,8,14,19,23-PENTAOXOOCTADECAHYDRO-1H,5H,14H,19H-PYRIDO[2,1-I]DIPYRROLO[2,1-C:2′,1′-L][1]OXA[4,7,10,13]TETRAAZACYCLOHEXADECIN-20-YL)-3-(M-TOLYL)PROPANAMIDE] | 98.2 ± 0.2% | 0.156 µM (≈ 0.126 µg/mL) | 0.156 µM (≈ 0.126 µg/mL) | 0.156 µM (≈ 0.126 µg/mL) | 0.078 µM (≈ 0.0632 µg/mL) | 0.313 µM (≈ 0.254 µg/mL) | 0.156 µM (≈ 0.126 µg/mL) | 1.22 ± 0.13 h
3 | Cc1cccc(C[C@H](NC(=O)Nc2ccc(Cl)cc2F)C(=O)N[C@@H]2C(=O)N3C[C@H](O)C[C@H]3C(=O)N3CCCC[C@H]3C(=O)N[C@@H](C)C(=O)N3C[C@H](C)C[C@H]3C(=O)O[C@H]2C)c1 [Compound 6, (S)-2-(3-(4-CHLORO-2-FLUOROPHENYL)UREIDO)-N-((2R,6S,8AS,14AS,16R,20S,21S,23AS)-16-HYDROXY-2,6,21-TRIMETHYL-5,8,14,19,23-PENTAOXOOCTADECAHYDRO-1H,5H,14H,19H-PYRIDO[2,1-I]DIPYRROLO[2,1-C:2′,1′-L][1]OXA[4,7,10,13]TETRAAZACYCLOHEXADECIN-20-YL)-3-(M-TOLYL)PROPANAMIDE] ({NH(4-Cl-2-F-phenyl)-CO}-[Phe(3-Me)][aThr][Hyp][Pip]A[Pro(4R-Me)]; ester 2-C) | 99.7 ± 0% | 0.078 µM (≈ 0.0655 µg/mL) | 0.078 µM (≈ 0.0655 µg/mL) | 0.156 µM (≈ 0.131 µg/mL) | 0.039 µM (≈ 0.0328 µg/mL) | 0.156 µM (≈ 0.131 µg/mL) | 0.156 µM (≈ 0.131 µg/mL) | 4.61 ± 1.2 h
4 | Cc1cccc(C[C@H](NC(=O)Nc2ccc(Cl)cc2F)C(=O)N[C@H]2COC(=O)[C@@H]3C[C@@H](C)CN3C(=O)[C@H](C)NC(=O)[C@@H]3CCCCN3C(=O)[C@@H]3C[C@@H](O)CN3C2=O)c1 [Compound 10] | 99.7 ± 0.2% | 0.313 µM (≈ 0.259 µg/mL) | 0.313 µM (≈ 0.259 µg/mL) | 0.156 µM (≈ 0.129 µg/mL) | 0.078 µM (≈ 0.0645 µg/mL) | 0.313 µM (≈ 0.259 µg/mL) | 0.313 µM (≈ 0.259 µg/mL) | 0.7 ± 0.07 h
5 | Cc1cccc(C[C@H](NC(=O)Nc2ccc(Cl)cc2F)C(=O)N[C@@H]2C(=O)N3CCC[C@H]3C(=O)N(C)C([C@@H](C)O)C(=O)N[C@@H](C)C(=O)N3C[C@H](C)C[C@H]3C(=O)O[C@H]2C)c1 (stereo partly drawn) [Compound 5] ({NH(4-Cl-2-F-phenyl)-CO}-[Phe(3-Me)][aThr]P[ξNMeThr]A[Pro(4R-Me)]; ester 2-C) | 98.0 ± 1.0% | 0.156 µM (≈ 0.129 µg/mL) | 0.078 µM (≈ 0.0646 µg/mL) | 0.078 µM (≈ 0.0646 µg/mL) | 0.039 µM (≈ 0.0323 µg/mL) | 0.078 µM (≈ 0.0646 µg/mL) | 0.156 µM (≈ 0.129 µg/mL) | 1.02 ± 0.2 h
6 | Cc1cccc(C[C@H](NC(=O)Nc2ccc(Cl)cc2F)C(=O)N[C@@H]2C(=O)N3CCC[C@H]3C(=O)N3CCN(C)C[C@H]3C(=O)N[C@@H](C)C(=O)N3C[C@H](C)C[C@H]3C(=O)O[C@H]2C)c1 [Compound 11, (S)-2-(3-(4-CHLORO-2-FLUOROPHENYL)UREIDO)-N-((6AS,12S,13S,15AS,17R,21S,23AS)-2,13,17,21-TETRAMETHYL-6,11,15,20,23-PENTAOXOOCTADECAHYDRO-2H,6H,11H,15H-PYRAZINO[2,1-I]DIPYRROLO[2,1-C:2′,1′-L][1]OXA[4,7,10,13]TETRAAZACYCLOHEXADECIN-12-YL)-3-(M-TOLYL)PROPANAMIDE] ({NH(4-Cl-2-F-phenyl)-CO}-[Phe(3-Me)][aThr]P[Piperazine(2S-CO,4-Me)]A[Pro(4R-Me)]; ester 2-C) | 97.9 ± 0.3% | 0.078 µM (≈ 0.0655 µg/mL) | 0.078 µM (≈ 0.0655 µg/mL) | 0.078 µM (≈ 0.0655 µg/mL) | 0.039 µM (≈ 0.0327 µg/mL) | 0.078 µM (≈ 0.0655 µg/mL) | 0.078 µM (≈ 0.0655 µg/mL) | 0.67 ± 0.07 h
7 | C[C@@H]1C[C@H]2C(=O)OC[C@H](NC(=O)[C@H](Cc3cc(F)cc(F)c3)NC(=O)Nc3ccc(Cl)cc3F)C(=O)N3CCC[C@H]3C(=O)N3CCN(C)C[C@H]3C(=O)N[C@@H](C)C(=O)N2C1 [Compound 34] ({NH(4-Cl-2-F-phenyl)-CO}-[Phe(3,5-F2)]SP[Piperazine(2S-CO,4-Me)]A[Pro(4R-Me)]; ester 2-C) | 96.5 ± 6.5% | < 0.02 µM | 0.078 µM (≈ 0.0661 µg/mL) | 0.078 µM (≈ 0.0661 µg/mL) | 0.039 µM (≈ 0.033 µg/mL) | 0.156 µM (≈ 0.132 µg/mL) | < 0.02 µM | 1.18 ± .185 h
